Patent US20150292032A1, “TREATMENT OF CANCER BY TARGETING QUIESCENT CANCER CELLS” (FELICITEX THERAPEUTICS, INC., priority 2012, published 2015)

Legend:
[1] = system: Panc-1 pancreatic cancer cells; assay: Quiescent (G0) cell fraction in serum-starved Panc-1 cells, two-parameter flow cytometry (Pyronin Y / Hoechst); format: cell-based, human
Protocol: Panc-1 cells were forced into the quiescent state by serum deprivation for 48 hours. Panc-1 were cultured in DMEM+0.2% FBS for 48 hours. Next the cells were switched to fresh media DMEM+10% FBS (panel A) or to fresh media DMEM+1-% FBS supplemented with 0.25 μM DYRK1B inhibitor R (panel B). As a result of this serum deprivation, 42% of cells were identified in G0 quiescent state, as depicted in FIG. 5A. The percentage of quiescent cells was identified by flow cytometry FACS analysis.
Next, a DYRK1B small molecule inhibitor R, pictured in FIG. 7, was applied to inhibit the activity of DYRK1B kinase, and the percentage of quiescent cells was again analyzed. […] Upon inhibition of the activity of DYRK1B kinase, pancreatic cancer cells left the G0 quiescent state and progressed into cell cycle. While the number of quiescent cells had been reduced to 27% in the presence of DYRK1B inhibitor R, the number of cells in S-phase of cell cycle doubled (13%) as compared to control cells (6% in FIG. 5A). DYRK1B kinase activity was necessary for Panc-1 pancreatic cancer cells to accumulate in a quiescent state. The distribution of cellular population within the cell cycle (i.e. G0, G1, S and G2/M populations) was analyzed by two-parameter flow cytometry. Specifically, the incorporation of Pyronin Y and Hoechst staining correlated to RNA and DNA content distribution, respectively. (Ewton, D. Z., Hu, J., Vilenchik, M., Deng, X., Luk, K. C., Polonskaia, A., Hoffman, A. F., Zipf, K., Boylan, J. F., and Friedman, E. A. (2011) Inactivation of mirk/dyrk1b kinase targets quiescent pancreatic cancer cells, Molecular Cancer Therapeutics 10, 2104-2114).

[2] = system: colon cancer cell line SW620; assay: S-phase fraction of cycling log-phase SW620 cells, BrdU pulse / PI flow cytometry; format: cell-based, human; conditions: 1 μM, 24 hours
Protocol: An experiment was run to determine if inhibition of DYRK1B activity would facilitate cells escaping quiescence and result in surge of proliferating cells, utilizing small molecule inhibitor R. Cycling, log-phase cells from colon cancer cell line SW620 were treated with 1 μM of DYRK1B inhibitor R for 24 hours with 1 hour pulse of BrdU before analysis by flow cytometry after propidium iodine staining of DNA. 38% of the cellular population was detected in the S-phase of the cell cycle. Parallel cultures were treated with the small molecule DYRK1B inhibitor R for 24 hours followed by identical FACS analysis (1-hour BrdU pulse followed by specific mAB-FITC and PI staining).

Question: What does the source list for `COc1ncc2cc(C(=O)Nc3cc(C(=O)NCc4cccc(Cl)c4)ccc3Cl)c(=O)[nH]c2n1` [inhibitor R]?
Answer: percentage of Panc-1 cells in G0 quiescent state ([1]; Panc-1, 48 h serum deprivation (DMEM+0.2% FBS), then fresh media with 0.25 μM inhibitor, FACS, control 42%): 27%; number of cells in S-phase of cell cycle ([1]; Panc-1, 48 h serum deprivation, then fresh media with 0.25 μM inhibitor, FACS, control 6%): 13%; entry of additional Panc-1 cells into quiescence ([1]; Panc-1, presence of inhibitor): blocked additional Panc-1 cells from entering quiescence; increase of fraction of S-phase cells compared to non-treated control [2]: 29%; S-phase population of cells ([2]; 1 hour BrdU pulse, control 38%): 49%
